Data as given in patent US12016864B2, “LOX enzyme inhibiting methods and compositions” (ANOVIA BIOSCIENCES, INC., priority 2021, dated 2024).

Experiments:
[1] = target: T1, Bovine lysyl oxidase (LOX) (Bos taurus, UniProt P33072); experiment: LOX inhibition assay, fluorometric (cadaverine / HRP / Amplex Red); format: biochemical; conditions: LOX extracted from bovine tendon, 30 min preincubation at 37° C., 5 mM cadaverine; for IC50: read-out: Activity Range LOX
T1 construct: from tissue; host or cells: adult bovine tendon
T1 sequence (P33072 170-418): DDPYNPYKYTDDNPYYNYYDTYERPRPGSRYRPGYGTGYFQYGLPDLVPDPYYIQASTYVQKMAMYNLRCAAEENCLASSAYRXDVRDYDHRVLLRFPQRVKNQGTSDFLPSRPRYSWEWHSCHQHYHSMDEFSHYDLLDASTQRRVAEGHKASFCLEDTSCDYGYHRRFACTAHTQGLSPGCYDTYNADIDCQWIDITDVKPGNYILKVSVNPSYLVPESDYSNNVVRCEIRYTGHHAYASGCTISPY
Method: The ability of compounds to inhibit prototypic LOX was determined using a fluorometric assay. This assay measures the activity of lysyl oxidases by coupling the reaction with horseradish peroxidase-catalyzed […]. The activity assay protocol uses cadaverine as substrate that releases hydrogen peroxide upon transformation by prototypic LOX enzyme present in the sample. Hydrogen peroxide was in turn detected using a red fluorescence substrate for HRP-coupled reactions (Amplex Red Enzyme Assays, Thermo Scientific Fisher). This lead to an increase in fluorescence that can be easily detected at Ex/Em=540/590 nm in a fluorescence microplate
Bovine lysyl oxidase (LOX) was extracted by adapting the methodology from [Kagan et al. 1979 and Borel et al. 2001.] from bovine tendon: Frozen adult bovine tendon was placed in room temperature water to defrost, and then membranes were removed and the remaining tissue cut into 1 cm pieces. The material was first passed through a course mesh meat grinder, and this mince was passed through a fine mesh grinder. The mince was homogenized in 10 v/w of buffer (16 mM sodium phosphate buffer pH 7.8, 400 mM NaCl) using a Waring blender. The homogenate was centrifuged at 15,000×g for 15 min at 4° C. After centrifugation, the supernatant was discarded and the pellets resuspended in 10 volumes of the same buffer. The mixture was blended again and centrifuged with the same settings. This time the pellets were blended in 3 volumes of extraction buffer (16 mM sodium phosphate buffer pH 7.8) and left to incubate at 4° C. for 2 h. After this time, the slurry was centrifuged with the same settings as described above. The supernatant was used in an ultrafiltration step to remove large proteins by size exclusion through a 30 kDalton filter (EMD Millipore). The filtrate was mixed with DEAE Sephadex (GE Healthcare), or passed over a MonoQ FPLC column. After two washes, one in 16 mM sodium phosphate buffer pH 7.8, 380 mM NaCl, and another in 16 mM sodium phosphate buffer pH 7.8, the proteins were eluted with 16 mM sodium phosphate pH 7.8, 10 μM CuSO4, and 4 M urea. Fractions containing Lox activity were collected and stored frozen at −70° C.
Final concentration in the LOX assay is shown in Table 6 below and performed in a total volume of […].
7 μl of freshly prepared reaction buffer were delivered to reaction wells. Compounds were resuspended in 100% DMSO at 10 mM and delivered into buffer using acoustic technology (Echo550; nanoliter range). A 2.85× solution of LOX protein in reaction buffer was prepared (“LOX solution”) and 7 μl of LOX solution was added into the reaction wells. Buffer only was added to column 1 for no protein control. Reactions were incubated for 30 minutes at 37° C. A 3.33× mixture of cadaverine, Amplex Red, and HRP (“Substrate/Detection Mix) was prepared and subsequently 6 μL of the mixture was added to each reaction well. Progress of reactions was monitored for 120 minutes at 37° C. using Clariostar plate reader (ex530-12, ems 600-40). For all activity assays, pan-LOX inhibitor CCT365623 (Tang et al, 2017) and LOXL2/LOXL3 inhibitor PAT-1251 (PharmaKea) were included as standards.
The slope of the linear portion of the progress curve was calculated using Clariostar software. Typical analysis interval was between 20-50 min, but varied between experiments. The background subtracted signals (No protein wells were considered as background) were converted to % activity relative to DMSO controls. Data was analyzed using GraphPad Prism 4 with “sigmoidal dose-response (variable slope)”; 4 parameters with Hill Slope. Constraints: Bottom=Constant equal to 0. Top=Must be less than 120.

[2] = target: T2, Recombinant human LOXL2 (lysyl oxidase like 2) (Homo sapiens, UniProt Q9Y4K0); experiment: LOXL2 inhibition assay, fluorometric (cadaverine / HRP / Amplex Red); format: biochemical; conditions: recombinant human LOXL2 130 nM; 30 min preincubation at 37° C.; 2.5 mM cadaverine; read-out: Activity Range LOXL2
T2 construct: purchased R&D systems
T2 sequence (Q9Y4K0 26-774): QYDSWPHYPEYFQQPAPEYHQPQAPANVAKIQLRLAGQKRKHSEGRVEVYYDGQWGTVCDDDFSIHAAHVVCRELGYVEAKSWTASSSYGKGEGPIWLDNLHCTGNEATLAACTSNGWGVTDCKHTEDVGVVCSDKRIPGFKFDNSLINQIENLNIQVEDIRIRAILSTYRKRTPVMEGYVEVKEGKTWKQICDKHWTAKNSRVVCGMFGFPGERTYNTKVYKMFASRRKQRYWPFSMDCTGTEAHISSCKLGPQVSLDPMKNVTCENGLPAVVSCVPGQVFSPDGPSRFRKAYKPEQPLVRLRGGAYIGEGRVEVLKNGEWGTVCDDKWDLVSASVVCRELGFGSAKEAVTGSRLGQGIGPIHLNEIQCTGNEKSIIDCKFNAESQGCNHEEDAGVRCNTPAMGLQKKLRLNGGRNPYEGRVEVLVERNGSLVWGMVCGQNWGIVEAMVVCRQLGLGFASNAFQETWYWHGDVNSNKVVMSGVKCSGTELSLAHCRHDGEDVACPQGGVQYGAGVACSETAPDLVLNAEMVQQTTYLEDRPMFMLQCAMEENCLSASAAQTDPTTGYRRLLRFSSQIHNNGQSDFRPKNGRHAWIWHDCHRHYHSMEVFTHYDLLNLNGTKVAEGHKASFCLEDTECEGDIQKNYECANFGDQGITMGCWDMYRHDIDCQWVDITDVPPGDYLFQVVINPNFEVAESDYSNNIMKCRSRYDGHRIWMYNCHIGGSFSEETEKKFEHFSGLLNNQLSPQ
Method: The ability of compounds to inhibit one or more of the lysyl oxidases LOXL2 and/or LOXL3 was determined using a fluorometric assay. This assay measures the activity of lysyl oxidases by coupling the reaction with horseradish peroxidase-catalyzed […]. The activity assay protocol uses cadaverine as substrate that releases hydrogen peroxide upon transformation by the specific LOX family enzyme present in the sample. Hydrogen peroxide is in turn detected using a red fluorescence substrate for HRP-coupled reactions (Amplex Red Enzyme Assays, Thermo Scientific Fisher). This leads to increase in fluorescence that can be easily detected at Ex/Em=540/590 nm in a fluorescence microplate reader.
Recombinant human LOXL2 (lysyl oxidase like 2) and recombinant human LOXL3 (lysyl oxidase like 3) were purchased from R&D systems and assays were performed in 1.2 M urea, 50 mM sodium borate buffer pH 8.0, and 10 mM CaCl.
5 μl of freshly prepared reaction buffer were delivered to reaction wells. Compounds were resuspended in 100% DMSO at 10 mM and delivered into buffer using acoustic technology (Echo550; nanoliter range). A 3× solution of LOXL2 or LOXL3 in reaction buffer was prepared (“enzyme solution”) and 5 μL of enzyme solution was added into the reaction wells. Buffer only was added to column 1 for no protein control. Reactions were incubated for 30 minutes at 37° C. A 3× mixture of cadaverine, Amplex Red, and HRP (“Substrate/Detection Mix) was prepared and subsequently 5 μL of the mixture added to each reaction well. Progress of reactions was monitored for 60 minutes at 37° C. using Clariostar plate reader (ex 530-12, ems 600-40). For all activity assays, pan-LOX inhibitor CCT365623 (Tang et al, 2017) and LOXL2/LOXL3 inhibitor PAT-1251 (PharmaKea) were included as standards.
For the data analysis, the slope of the linear portion of the progress curve was calculated using Clariostar software. Typical analysis interval was between 8-30 min, but varied between experiments. The background-subtracted signals (No protein wells are considered as background) were converted to % activity relative to DMSO controls. Data was analyzed using GraphPad Prism 4 with “sigmoidal dose-response (variable slope)”; 4 parameters with Hill Slope. Constraints: Bottom=Constant equal to 0. Top=Must be less than 120.

Compound	IC50 [1] [nM]	IC50 [2] [nM]	Activity Range LOX [1]
NCc1ccnc(S(=O)(=O)C[C@@H]2C[C@H](c3ccc(F)cc3)CN2S(=O)(=O)N2CCOCC2)c1 (racemic) [Example 204, cis-(2-(((4-(4-fluorophenyl)-1-(morpholinosulfony1)pyrrolidin-2-yl)methyl)sulfonyl)pyridin-4-yl)methanamine 2,2,2-trifluoroacetate]	1000 to 30000	≤ 500	
NCc1ccnc(S(=O)(=O)C[C@@H]2C[C@H](c3ccc(F)cc3)CN2S(=O)(=O)N2CCS(=O)(=O)CC2)c1 (racemic) [Example 206, cis-4-((2-(((4-(Aminomethyl)pyridin-2-yl)sulfonyl)methyl)-4-(4-fluorophenyl)pyrrolidin-1-yl)sulfonyl)thiomorpholine 1,1-dioxide 2,2,2-trifluoroacetate]	1000 to 30000	≤ 500	
CS(=O)(=O)N1C[C@@H](c2ccccc2)C[C@H]1CS(=O)(=O)c1cccc(CN)c1 (racemic) [Example 27, cis-(3-(((1-(Methylsulfonyl)-4-phenylpyrrolidin-2-yl)methyl)sulfonyl)phenyl)methanamine 2,2,2-trifluoroacetate]	1000 to 30000	≤ 500	
NCc1ccnc(S(=O)(=O)C[C@@H]2C[C@H](c3ccccc3F)CN2S(=O)(=O)N2CCOCC2)c1 (racemic) [Example 203, cis-(2-(((4-(2-fluorophenyl)-1-(morpholinosulfonyl)pyrrolidin-2-yl)methyl)sulfonyl)pyridin-4-yl)methanamine 2,2,2-trifluoroacetate]	1000 to 30000	≤ 500	
CS(=O)(=O)N1C[C@@H](c2ccccc2)C[C@H]1CS(=O)(=O)c1ccc(CN)cc1 (racemic) [Example 26, cis-(4-(((1-(Methylsulfonyl)-4-phenylpyrrolidin-2-yl)methyl)sulfonyl)phenyl)methanamine 2,2,2-trifluoroacetate]	1000 to 30000	≤ 500	
NCc1ccc(S(=O)(=O)C[C@@H]2C[C@H](c3ccc(F)cc3)CN2S(=O)(=O)N2CCS(=O)(=O)CC2)s1 (racemic) [Example 210, cis-4-((2-(((5-(Aminomethyl)thiophen-2-yl)sulfonyl)methyl)-4-(4-fluorophenyl)pyrrolidin-1-yl)sulfonyl)thiomorpholine 1,1-dioxide 2,2,2-trifluoroacetate]	1000 to 30000	≤ 500	
NCc1ccc(S(=O)(=O)C[C@@H]2C[C@H](c3ccc(F)cc3)CN2S(=O)(=O)N2CCOCC2)s1 (racemic) [Example 208, cis-(5-(((4-(4-Fluorophenyl)-1-(morpholinosulfonyl)pyrrolidin-2-yl)methyl)sulfonyl)thiophen-2-yl)methanamine 2,2,2-trifluoroacetate]	≤ 500	≤ 500	
NCc1ccc(S(=O)(=O)C[C@@H]2C[C@H](c3ccccc3F)CN2S(=O)(=O)N2CCOCC2)s1 (racemic) [Example 207, cis-(5-(((4-(2-Fluorophenyl)-1-(morpholinosulfonyl)pyrrolidin-2-yl)methyl)sulfonyl)thiophen-2-yl)methanamine 2,2,2-trifluoroacetate]	≤ 500	≤ 500	

The remaining lines, values ahead:

IC50 [1] [nM]	IC50 [2] [nM]	Activity Range LOX [1]	Compound
1000 to 30000	≤ 500		NCc1ccnc(OC[C@@H]2C[C@H](c3ccc(F)cc3)CN2S(=O)(=O)N2CCOCC2)c1 (racemic) [Example 212, cis-(2-((4-(4-Fluorophenyl)-1-(morpholinosulfonyl)pyrrolidin-2-yl)methoxy)pyridin-4-yl)methanamine 2,2,2-trifluoroacetate]
	500 to 1000	Inactive	NCc1cccc(OC[C@@H]2C[C@H](c3ccc(F)cc3)CN2S(=O)(=O)N2CCOCC2)c1.O=C(O)C(F)(F)F (racemic) [Example 216, cis-(3-((4-(4-Fluorophenyl)-1-(morpholinosulfonyl)pyrrolidin-2-yl)methoxy)phenyl)methanamine 2,2,2-trifluoroacetate]
	≤ 500	Inactive	NCc1ccnc(OC[C@@H]2C[C@H](c3ccc(F)cc3)CN2S(=O)(=O)N2CCS(=O)(=O)CC2)c1.O=C(O)C(F)(F)F (racemic) [Example 214, cis-((2-(((4-(Aminomethyl)pyridin-2-yl)oxy)methyl)-4-(4-fluorophenyl)pyrrolidin-1-yl)sulfonyl)thiomorpholine 1,1-dioxide 2,2,2-trifluoroacetate]
1000 to 30000	≤ 500		NCc1cccc(OC[C@@H]2C[C@H](c3ccc(F)cc3)CN2S(=O)(=O)N2CCS(=O)(=O)CC2)c1 (racemic) [Example 218, cis-4-((2-((3-(Aminomethyl)phenoxy)methyl)-4-(4-fluorophenyl)pyrrolidin-1-yl)sulfonyl)thiomorpholine 1,1-dioxide]
